What was measured:
[1] = Intrinsic clearance in human liver microsomes at 1 uM and measured upto 30 mins in presence of NADPH by LC-MS analysis; assay type: ADME, Microsome; details: read-out: CLH (converted)
[2] = Volume of distribution at steady state in cynomolgus monkey at 1 mg/kg, iv and measured upto 24 hrs by LC-MS/MS analysis; assay type: ADME, organism-based, Macaca fascicularis; details: in vivo
[3] = Permeability across apical to basolateral side in human Caco2 cells at 50 uM and measured after 120 mins by LC-MS analysis; assay type: ADME, cell-based; details: Caco-2, read-out: permeability
[4] = Clearance in cynomolgus monkey at 1 mg/kg, iv and measured upto 24 hrs by LC-MS/MS analysis; assay type: ADME, organism-based, Macaca fascicularis; details: in vivo
[5] = Clearance in Sprague-Dawley rat at 1.5 mg/kg, iv and measured upto 24 hrs by LC-MS/MS analysis; assay type: ADME, organism-based; details: in vivo
[6] = AUC in cynomolgus monkey at 3 mg/kg, po and measured upto 24 hrs by LC-MS/MS analysis; assay type: ADME, organism-based, Macaca fascicularis; set-up: dose 3 mg/kg, time < 24 hrs, route po; details: in vivo
[7] = molecular target: T1, Mitogen-activated protein kinase kinase kinase kinase 1 (Homo sapiens, UniProt Q92918); test: Inhibition of human HPK1 in human whole blood assessed as reduction in SLP76 phosphorylation incubated for 1 hr by HTRF assay; assay type: tissue-based
T1 sequence (Q92918 whole entry): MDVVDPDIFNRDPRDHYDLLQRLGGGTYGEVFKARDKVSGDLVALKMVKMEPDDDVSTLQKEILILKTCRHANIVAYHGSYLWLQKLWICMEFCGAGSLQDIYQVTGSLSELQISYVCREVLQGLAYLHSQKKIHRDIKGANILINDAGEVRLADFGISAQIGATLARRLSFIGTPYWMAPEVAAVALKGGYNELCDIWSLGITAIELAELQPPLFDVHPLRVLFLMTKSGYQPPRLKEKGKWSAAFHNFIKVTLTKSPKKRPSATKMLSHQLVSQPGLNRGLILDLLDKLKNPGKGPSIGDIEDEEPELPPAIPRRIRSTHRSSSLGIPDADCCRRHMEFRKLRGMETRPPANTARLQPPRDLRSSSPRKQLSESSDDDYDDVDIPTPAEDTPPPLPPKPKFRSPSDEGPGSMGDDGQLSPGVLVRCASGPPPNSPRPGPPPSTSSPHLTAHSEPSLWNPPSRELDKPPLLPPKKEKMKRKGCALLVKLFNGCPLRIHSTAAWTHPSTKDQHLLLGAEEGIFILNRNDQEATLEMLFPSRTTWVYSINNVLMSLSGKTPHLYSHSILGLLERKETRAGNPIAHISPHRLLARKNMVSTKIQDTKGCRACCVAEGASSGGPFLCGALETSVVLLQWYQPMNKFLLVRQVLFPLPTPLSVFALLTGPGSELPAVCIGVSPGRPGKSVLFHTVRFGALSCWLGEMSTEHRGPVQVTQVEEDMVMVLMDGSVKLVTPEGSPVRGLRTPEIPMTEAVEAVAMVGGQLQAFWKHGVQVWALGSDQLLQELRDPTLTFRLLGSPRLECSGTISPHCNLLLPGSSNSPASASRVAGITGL

Cytochrome P450 2C9 = Cytochrome P450 2C9 (Homo sapiens, UniProt P11712); test: Inhibition of CYP2C9 in human liver microsomes using diclofenac as substrate by LC-MS analysis; assay type: ADME, Microsome
Chain of Cytochrome P450 2C9 (P11712 whole entry): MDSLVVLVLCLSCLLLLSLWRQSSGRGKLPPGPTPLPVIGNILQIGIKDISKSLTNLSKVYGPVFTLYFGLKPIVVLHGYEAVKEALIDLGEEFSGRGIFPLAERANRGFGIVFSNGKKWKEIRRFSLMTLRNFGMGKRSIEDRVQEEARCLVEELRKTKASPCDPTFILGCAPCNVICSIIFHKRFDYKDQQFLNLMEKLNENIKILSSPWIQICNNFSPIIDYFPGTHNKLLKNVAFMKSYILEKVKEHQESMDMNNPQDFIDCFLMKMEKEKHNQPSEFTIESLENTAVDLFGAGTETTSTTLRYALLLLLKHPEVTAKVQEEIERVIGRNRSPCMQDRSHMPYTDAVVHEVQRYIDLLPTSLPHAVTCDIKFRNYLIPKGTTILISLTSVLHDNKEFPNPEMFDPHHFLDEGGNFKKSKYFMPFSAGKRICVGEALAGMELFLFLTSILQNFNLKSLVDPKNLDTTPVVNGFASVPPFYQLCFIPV

[8] = Fraction unbound in human plasma by LC-MS/MS analysis; assay type: ADME, cell-free
[9] = Oral bioavailability in cynomolgus monkey at 3 mg/kg and measured upto 24 hrs by LC-MS/MS analysis; assay type: ADME, organism-based, Macaca fascicularis; details: in vivo
[10] = molecular target: T1, Mitogen-activated protein kinase kinase kinase kinase 1; test: Inhibition of human HPK1 in human Jurkat cells assessed as reduction in SLP76 phosphorylation incubated for 1 hr by HTRF assay; assay type: cell-based
[11] = Half life in cynomolgus monkey at 1 mg/kg, iv and measured upto 24 hrs by LC-MS/MS analysis; assay type: ADME, organism-based, Macaca fascicularis; details: in vivo
Cytochrome P450 3A4 [12] = molecular target: T2, Cytochrome P450 3A4 (Homo sapiens, UniProt P08684); test: Inhibition of CYP3A4 in human liver microsomes using testosterone as substrate by LC-MS analysis; assay type: ADME, Microsome
T2 sequence (P08684 whole entry): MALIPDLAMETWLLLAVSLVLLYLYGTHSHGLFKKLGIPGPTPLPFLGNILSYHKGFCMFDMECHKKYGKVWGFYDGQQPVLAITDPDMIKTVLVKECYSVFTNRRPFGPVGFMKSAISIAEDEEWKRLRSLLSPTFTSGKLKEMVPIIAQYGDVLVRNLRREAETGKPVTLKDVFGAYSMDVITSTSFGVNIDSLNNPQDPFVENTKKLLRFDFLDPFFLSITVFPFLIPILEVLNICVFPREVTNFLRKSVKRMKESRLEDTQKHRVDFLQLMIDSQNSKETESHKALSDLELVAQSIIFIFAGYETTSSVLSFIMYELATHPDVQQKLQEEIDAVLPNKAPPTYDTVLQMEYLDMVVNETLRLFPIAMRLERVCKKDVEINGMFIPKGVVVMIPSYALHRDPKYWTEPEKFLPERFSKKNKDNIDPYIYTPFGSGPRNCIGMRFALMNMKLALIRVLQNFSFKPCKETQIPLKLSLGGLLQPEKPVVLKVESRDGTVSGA

Cytochrome P450 2B6 = molecular target: T3, Cytochrome P450 2B6 (Homo sapiens, UniProt P20813); test: Inhibition of CYP2B6 in human liver microsomes using bupropion as substrate by LC-MS analysis; assay type: ADME, Microsome
T3 sequence (P20813 whole entry): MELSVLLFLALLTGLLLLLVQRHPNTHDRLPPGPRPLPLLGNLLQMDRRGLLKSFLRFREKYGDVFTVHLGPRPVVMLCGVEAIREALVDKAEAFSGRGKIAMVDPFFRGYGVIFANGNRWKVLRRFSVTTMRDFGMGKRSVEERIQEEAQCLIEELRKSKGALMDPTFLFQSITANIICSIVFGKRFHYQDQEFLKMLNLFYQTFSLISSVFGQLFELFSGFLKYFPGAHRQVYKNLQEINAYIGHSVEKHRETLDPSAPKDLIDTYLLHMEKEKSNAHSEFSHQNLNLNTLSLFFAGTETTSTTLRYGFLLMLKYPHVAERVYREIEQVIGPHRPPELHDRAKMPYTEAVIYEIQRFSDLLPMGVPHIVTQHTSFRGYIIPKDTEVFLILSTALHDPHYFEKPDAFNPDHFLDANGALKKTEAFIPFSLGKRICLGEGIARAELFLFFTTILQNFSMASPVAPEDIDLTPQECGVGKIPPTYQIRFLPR

Cytochrome P450 2D6 = Cytochrome P450 2D6 (Homo sapiens, UniProt P10635); test: Inhibition of CYP2D6 in human liver microsomes using bufuralol as substrate by LC-MS analysis; assay type: ADME, Microsome
Chain of Cytochrome P450 2D6 (P10635 whole entry): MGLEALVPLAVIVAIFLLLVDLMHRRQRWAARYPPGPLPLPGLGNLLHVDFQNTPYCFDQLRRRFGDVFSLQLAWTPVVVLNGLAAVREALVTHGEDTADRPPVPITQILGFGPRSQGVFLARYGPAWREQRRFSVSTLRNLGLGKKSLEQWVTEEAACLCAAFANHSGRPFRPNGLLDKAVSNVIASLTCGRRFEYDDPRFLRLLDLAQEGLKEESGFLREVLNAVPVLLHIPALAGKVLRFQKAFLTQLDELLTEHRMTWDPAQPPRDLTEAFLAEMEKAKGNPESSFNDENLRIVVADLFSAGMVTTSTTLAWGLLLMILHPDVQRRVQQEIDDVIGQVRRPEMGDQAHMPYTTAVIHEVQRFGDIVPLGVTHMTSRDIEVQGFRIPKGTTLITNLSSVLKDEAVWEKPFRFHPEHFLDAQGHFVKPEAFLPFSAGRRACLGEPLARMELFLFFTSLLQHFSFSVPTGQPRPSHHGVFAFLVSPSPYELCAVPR

[13] = AUC in Sprague-Dawley rat at 3 mg/kg, po and measured upto 24 hrs by LC-MS/MS analysis; assay type: ADME, organism-based; set-up: dose 3 mg/kg, time < 24 hrs, route po; details: in vivo
Cytochrome P450 2C19 [14] = molecular target: T4, Cytochrome P450 2C19 (Homo sapiens, UniProt P33261); test: Inhibition of CYP2C19 in human liver microsomes using S mephenytoin as substrate by LC-MS analysis; assay type: ADME, Microsome
T4 sequence (P33261 whole entry, the tested form may be a part): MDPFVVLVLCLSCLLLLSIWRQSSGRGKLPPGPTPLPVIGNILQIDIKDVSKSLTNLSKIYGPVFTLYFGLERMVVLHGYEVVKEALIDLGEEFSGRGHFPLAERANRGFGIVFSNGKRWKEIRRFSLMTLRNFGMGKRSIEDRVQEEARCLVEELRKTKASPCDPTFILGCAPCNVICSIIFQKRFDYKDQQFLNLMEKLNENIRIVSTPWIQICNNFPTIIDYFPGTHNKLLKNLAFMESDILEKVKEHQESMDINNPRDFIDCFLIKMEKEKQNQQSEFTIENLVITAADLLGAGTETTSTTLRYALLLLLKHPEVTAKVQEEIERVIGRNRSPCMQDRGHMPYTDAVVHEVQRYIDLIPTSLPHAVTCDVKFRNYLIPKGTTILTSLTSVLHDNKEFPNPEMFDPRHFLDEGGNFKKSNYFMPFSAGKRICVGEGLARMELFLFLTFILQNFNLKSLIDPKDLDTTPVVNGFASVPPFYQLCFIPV

[15] = molecular target: T1, Mitogen-activated protein kinase kinase kinase kinase 1; test: Binding affinity to recombinant human HPK1 (1 to 346 residues) expressed sf9 cells incubated for 1 hr by LanthaScreen assay
Cytochrome P450 1A2 = molecular target: T5, Cytochrome P450 1A2 (Homo sapiens, UniProt P05177); test: Inhibition of CYP1A2 in human liver microsomes using 7- ethoxyresorufin as substrate by LC-MS analysis; assay type: ADME, Microsome
T5 sequence (P05177 whole entry): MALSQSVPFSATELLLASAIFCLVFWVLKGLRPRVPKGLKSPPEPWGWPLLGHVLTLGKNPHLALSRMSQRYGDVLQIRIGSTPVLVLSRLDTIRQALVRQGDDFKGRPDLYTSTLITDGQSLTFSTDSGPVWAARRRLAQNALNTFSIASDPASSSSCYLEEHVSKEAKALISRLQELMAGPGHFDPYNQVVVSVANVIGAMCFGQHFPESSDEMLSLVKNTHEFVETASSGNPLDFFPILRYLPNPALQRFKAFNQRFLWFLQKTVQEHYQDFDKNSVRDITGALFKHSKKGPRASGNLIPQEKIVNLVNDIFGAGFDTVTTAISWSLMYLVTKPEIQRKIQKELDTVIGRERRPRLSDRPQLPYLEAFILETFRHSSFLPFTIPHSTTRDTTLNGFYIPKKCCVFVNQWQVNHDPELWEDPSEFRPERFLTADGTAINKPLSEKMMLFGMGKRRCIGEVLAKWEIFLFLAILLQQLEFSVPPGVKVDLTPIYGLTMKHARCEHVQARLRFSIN

hERG (KCNH2) = hERG (KCNH2) (Homo sapiens, UniProt Q12809); test: Inhibition of human ERG at 5 uM by patch-clamp assay; assay type: toxicity
Chain of hERG (KCNH2) (Q12809 whole entry): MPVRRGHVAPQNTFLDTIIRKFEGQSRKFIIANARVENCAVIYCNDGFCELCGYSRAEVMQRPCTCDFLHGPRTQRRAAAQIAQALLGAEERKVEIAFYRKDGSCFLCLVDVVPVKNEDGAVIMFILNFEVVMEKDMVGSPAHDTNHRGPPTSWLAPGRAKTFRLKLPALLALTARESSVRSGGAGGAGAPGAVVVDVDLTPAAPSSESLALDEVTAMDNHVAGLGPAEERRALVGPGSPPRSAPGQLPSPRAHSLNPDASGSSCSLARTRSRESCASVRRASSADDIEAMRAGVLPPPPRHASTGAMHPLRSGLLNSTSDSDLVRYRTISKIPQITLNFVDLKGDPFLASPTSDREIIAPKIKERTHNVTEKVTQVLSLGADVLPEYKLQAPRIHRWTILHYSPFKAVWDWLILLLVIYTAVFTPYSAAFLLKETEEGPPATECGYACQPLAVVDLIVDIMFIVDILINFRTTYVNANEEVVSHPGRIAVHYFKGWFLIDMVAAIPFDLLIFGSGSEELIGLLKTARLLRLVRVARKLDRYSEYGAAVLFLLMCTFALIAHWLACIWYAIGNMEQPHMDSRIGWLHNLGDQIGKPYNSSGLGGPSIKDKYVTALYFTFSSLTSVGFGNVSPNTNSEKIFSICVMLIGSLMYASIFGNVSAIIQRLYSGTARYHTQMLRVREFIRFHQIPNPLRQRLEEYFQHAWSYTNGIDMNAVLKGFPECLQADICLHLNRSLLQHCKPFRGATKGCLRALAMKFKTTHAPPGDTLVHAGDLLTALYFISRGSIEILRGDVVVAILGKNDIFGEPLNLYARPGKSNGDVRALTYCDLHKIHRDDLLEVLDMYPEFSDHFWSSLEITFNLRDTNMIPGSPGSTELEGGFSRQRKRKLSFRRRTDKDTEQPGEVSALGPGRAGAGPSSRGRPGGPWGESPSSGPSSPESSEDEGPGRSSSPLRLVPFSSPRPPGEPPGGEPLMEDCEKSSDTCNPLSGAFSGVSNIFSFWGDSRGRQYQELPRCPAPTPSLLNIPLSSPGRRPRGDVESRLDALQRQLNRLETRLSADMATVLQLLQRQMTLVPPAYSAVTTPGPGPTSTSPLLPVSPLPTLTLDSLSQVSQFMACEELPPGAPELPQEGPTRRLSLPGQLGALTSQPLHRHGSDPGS

Cytochrome P450 2C8 = molecular target: T6, Cytochrome P450 2C8 (Homo sapiens, UniProt P10632); test: Inhibition of CYP2C8 in human liver microsomes using amodiaquine as substrate by LC-MS analysis; assay type: ADME, Microsome
T6 sequence (P10632 whole entry): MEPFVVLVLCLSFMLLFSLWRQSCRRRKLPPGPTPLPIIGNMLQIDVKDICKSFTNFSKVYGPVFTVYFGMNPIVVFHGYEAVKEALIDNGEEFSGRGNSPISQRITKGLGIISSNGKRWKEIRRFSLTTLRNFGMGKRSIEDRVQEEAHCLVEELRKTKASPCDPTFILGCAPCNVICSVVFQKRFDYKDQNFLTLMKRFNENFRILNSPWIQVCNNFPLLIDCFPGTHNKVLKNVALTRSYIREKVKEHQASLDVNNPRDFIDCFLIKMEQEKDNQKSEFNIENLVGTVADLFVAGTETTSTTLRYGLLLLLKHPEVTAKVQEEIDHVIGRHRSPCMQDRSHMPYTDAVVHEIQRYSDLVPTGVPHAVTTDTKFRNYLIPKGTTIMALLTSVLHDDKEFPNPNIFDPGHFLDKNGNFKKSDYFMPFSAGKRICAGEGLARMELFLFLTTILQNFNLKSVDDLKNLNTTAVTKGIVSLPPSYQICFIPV

Cytochrome P450 3A4 [16] = molecular target: T2, Cytochrome P450 3A4; test: Inhibition of CYP3A4 in human liver microsomes using midazolam as substrate by LC-MS analysis; assay type: ADME, Microsome
[17] = molecular target: Mast/stem cell growth factor receptor Kit (Homo sapiens, UniProt P10721); test: Inhibition of KIT (unknown origin) in presence of ATP
Chain of Mast/stem cell growth factor receptor Kit (P10721 whole entry): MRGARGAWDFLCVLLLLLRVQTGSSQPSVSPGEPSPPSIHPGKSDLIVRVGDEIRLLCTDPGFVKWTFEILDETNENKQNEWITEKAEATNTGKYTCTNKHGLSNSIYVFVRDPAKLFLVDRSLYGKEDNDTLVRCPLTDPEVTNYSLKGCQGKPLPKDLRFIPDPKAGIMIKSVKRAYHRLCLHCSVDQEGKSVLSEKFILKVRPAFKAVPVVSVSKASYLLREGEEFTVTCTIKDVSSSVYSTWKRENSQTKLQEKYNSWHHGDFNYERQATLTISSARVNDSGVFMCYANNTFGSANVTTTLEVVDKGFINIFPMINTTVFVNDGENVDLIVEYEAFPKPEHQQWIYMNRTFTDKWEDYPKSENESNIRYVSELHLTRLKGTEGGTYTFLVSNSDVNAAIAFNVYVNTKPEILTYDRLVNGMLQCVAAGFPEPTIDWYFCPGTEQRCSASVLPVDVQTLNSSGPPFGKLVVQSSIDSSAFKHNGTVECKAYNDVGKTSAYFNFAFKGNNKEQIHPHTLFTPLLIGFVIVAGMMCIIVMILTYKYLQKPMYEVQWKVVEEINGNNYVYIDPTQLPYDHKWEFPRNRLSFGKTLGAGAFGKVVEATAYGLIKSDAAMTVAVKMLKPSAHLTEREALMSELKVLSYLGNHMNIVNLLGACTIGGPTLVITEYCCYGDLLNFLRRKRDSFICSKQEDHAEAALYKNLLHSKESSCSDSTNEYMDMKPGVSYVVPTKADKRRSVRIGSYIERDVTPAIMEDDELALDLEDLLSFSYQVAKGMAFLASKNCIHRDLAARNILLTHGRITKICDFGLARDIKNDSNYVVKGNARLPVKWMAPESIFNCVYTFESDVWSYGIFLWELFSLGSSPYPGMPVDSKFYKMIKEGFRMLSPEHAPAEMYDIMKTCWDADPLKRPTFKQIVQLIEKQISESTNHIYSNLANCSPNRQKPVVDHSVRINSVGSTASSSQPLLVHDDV

Cytochrome P450 2C19 [18] = molecular target: T4, Cytochrome P450 2C19; test: Time dependent inhibition of CYP2C19 in human liver microsomes using S mephenytoin as substrate by LC-MS analysis; assay type: ADME, Microsome; details: TDE = time-dependent effect
[19] = molecular target: T7, Receptor-type tyrosine-protein kinase FLT3 (Homo sapiens, UniProt P36888); test: Inhibition of FLT3 (unknown origin) in presence of ATP
T7 sequence (P36888 whole entry): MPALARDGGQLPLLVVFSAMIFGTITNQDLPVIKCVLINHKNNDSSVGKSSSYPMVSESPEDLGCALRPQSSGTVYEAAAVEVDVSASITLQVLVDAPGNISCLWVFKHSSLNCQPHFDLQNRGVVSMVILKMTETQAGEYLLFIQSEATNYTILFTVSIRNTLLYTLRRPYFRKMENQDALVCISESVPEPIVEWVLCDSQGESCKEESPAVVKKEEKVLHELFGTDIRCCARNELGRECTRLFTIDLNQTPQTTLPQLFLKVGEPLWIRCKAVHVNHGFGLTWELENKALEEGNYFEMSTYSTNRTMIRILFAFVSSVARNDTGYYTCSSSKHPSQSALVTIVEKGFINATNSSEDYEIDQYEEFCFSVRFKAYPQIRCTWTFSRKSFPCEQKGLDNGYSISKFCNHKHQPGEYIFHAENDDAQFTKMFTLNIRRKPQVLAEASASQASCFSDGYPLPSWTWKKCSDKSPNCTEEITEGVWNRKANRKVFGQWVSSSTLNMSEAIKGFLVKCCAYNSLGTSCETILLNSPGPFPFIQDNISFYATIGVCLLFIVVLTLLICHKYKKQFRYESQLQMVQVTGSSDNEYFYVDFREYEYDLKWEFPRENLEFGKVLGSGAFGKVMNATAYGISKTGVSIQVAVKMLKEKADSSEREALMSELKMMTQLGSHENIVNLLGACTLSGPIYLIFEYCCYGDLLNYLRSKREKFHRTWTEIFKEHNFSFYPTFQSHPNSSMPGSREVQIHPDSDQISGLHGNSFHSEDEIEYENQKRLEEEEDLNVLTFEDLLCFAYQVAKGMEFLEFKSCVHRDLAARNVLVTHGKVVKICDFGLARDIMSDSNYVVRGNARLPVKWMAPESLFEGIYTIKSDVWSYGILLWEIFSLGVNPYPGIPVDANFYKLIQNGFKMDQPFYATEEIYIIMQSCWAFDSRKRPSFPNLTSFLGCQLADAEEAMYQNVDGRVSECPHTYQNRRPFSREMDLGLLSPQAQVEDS

CLint scaled at 1 µM [1] [mL/min/kg] | Vdss [2] [L/kg] | Papp A→B at 2 h, 50 µM [3] [×10⁻⁶ cm/s] | clearance [4] [mL/min/kg] | clearance [5] [mL/min/kg] | AUC at 24 h [6] [µM·h] | fraction unbound [8] | bioavailability [9] [%] | IC50 [10] [nM] | half-life [11] [h] | IC50 (Cytochrome P450 3A4 [12]) [nM] | AUC at 24 h [13] [µM·h] | Ki [15] [nM] | IC50 (Cytochrome P450 3A4 [16]) [nM] | IC50 [17] [nM] | inhibition (INH) (Cytochrome P450 2C19 [18]) | IC50 [19] [nM] | SMILES | further results
< 8.33 | 4.6 | 1.1 | 20 | 118 | 0.759 | 0.41 | 7 | 91 | 5.5 | > 25000 | 0.456 | 2.7 | > 25000 | 7470 | Tde | 1510 | CNCc1cc(C)c(-c2cc3c(-c4cnn(C)c4)n[nH]c3cn2)c(F)c1 | 
< 8.33 |  | 0.2 |  |  |  |  |  | 219 |  |  |  | 3 |  | 857 |  | 260 | CNCc1cc(F)c(-c2cc3c(-c4cnn(C)c4)n[nH]c3cn2)c(OC)c1 | 

More lines, now with the values behind:

SMILES | CLint scaled at 1 µM [1] [mL/min/kg] | Vdss [2] [L/kg] | Papp A→B at 2 h, 50 µM [3] [×10⁻⁶ cm/s] | clearance [4] [mL/min/kg] | clearance [5] [mL/min/kg] | AUC at 24 h [6] [µM·h] | fraction unbound [8] | bioavailability [9] [%] | IC50 [10] [nM] | half-life [11] [h] | IC50 (Cytochrome P450 3A4 [12]) [nM] | AUC at 24 h [13] [µM·h] | Ki [15] [nM] | IC50 (Cytochrome P450 3A4 [16]) [nM] | IC50 [17] [nM] | inhibition (INH) (Cytochrome P450 2C19 [18]) | IC50 [19] [nM] | further results
Cc1cc(CN2CCC2)cc(F)c1-c1cc2c(-c3cnn(C)c3)n[nH]c2cn1 | 8.33 | 4 | 3.1 | 15.8 | 102 | 9.77 | 0.43 | 96 | 146 | 6 | > 15000 | 1.1 | 4.1 |  |  |  |  | IC50 [7]: 302 nM; IC50 (Cytochrome P450 2C9): > 15000 nM; IC50 (Cytochrome P450 2B6): > 15000 nM; IC50 (Cytochrome P450 2D6): > 15000 nM; IC50 (Cytochrome P450 2C19 [14]): > 15000 nM; IC50 (Cytochrome P450 1A2): > 15000 nM; inhibition at 5 µM (hERG (KCNH2)): 5%; IC50 (Cytochrome P450 2C8): > 15000 nM
CNCc1cc(F)c(-c2cc3c(-c4cnn(C)c4)n[nH]c3cn2)c(C(F)(F)F)c1 | < 8.33 |  | 1.6 |  |  |  |  |  | 128 |  | > 25000 |  | 3.5 | > 25000 | 1980 | Tde | 2230 | 
CNCc1cc(F)c(-c2cc3c(-c4cnn(C)c4)n[nH]c3cn2)c(F)c1 | < 8.33 |  | 0.7 |  |  |  |  |  | 117 |  | > 25000 |  | 5.4 | > 25000 | 1080 |  | 366 | 

From ChEMBL document CHEMBL5223162, “Discovery of Pyrazolopyridine Derivatives as HPK1 Inhibitors” (ACS Med Chem Lett, 2023)
